This passage reports EC50 and AC50 results from ChEMBL document CHEMBL1201862, “PubChem BioAssay data set” (2004).

The test system of data set [1] is Streptococcus sp. 'group A'. The data set is described as follows: growth inhibition of control SK(-) GAS strain, dose response, counter-screen for streptokinase expression inhibitor project, luminescence, kanamycin, BacTiterGlo, confirmation (AID 1900). The data set is classed as functional, organism-based. For orientation: The purpose of a counterscreen is to sort out artefacts and off-target activity.

In another data set the target is T1, Streptokinase A (Streptococcus pyogenes serotype M1, UniProt P10520).
T1 sequence (P10520 whole entry): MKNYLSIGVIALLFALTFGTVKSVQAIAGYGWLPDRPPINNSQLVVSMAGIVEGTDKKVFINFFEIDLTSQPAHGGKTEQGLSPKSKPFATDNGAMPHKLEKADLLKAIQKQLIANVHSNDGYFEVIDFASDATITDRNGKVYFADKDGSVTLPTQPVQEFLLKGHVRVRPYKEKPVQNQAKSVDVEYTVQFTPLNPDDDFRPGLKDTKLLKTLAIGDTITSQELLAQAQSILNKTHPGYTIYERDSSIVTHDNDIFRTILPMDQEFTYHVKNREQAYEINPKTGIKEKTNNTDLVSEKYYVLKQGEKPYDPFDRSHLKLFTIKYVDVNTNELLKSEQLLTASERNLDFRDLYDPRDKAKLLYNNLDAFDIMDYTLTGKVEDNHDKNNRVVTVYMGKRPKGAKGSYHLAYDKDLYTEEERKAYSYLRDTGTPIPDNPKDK
The data set is described as follows: S. pyogenes streptokinase expression inhibitors, potency, dose response, plasminogen activation absorbance, OD405 (AID 1914).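 Note: secreted streptokinase activity via plasminogen activation per viability signal from cell pellet.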 In kind it is functional, Streptococcus pyogenes M1 GAS.

The subject of another data set is Streptococcus. The data set is described as follows: Group A Streptococcus viability loss, dose response, counter-screen for streptokinase expression inhibitor project, luminescence, BacTiterGlo (AID 1915).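 Note: potency for reduction of bacterial viability or growth.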 In kind it is functional, organism-based.
For a further data set, the target named is Cytochrome P450 2C9 (Homo sapiens, UniProt P11712).
In a further data set the target is Cytochrome P450 2C19 (Homo sapiens, UniProt P33261). The data set is described as follows: Cytochrome panel assay with activity outcomes. Panel member name: p450-cyp2c19 Compounds with AC50 equal or less than 10 uM are considered active. In kind it is functional.
The target in the next data set is Cytochrome P450 3A4 (Homo sapiens, UniProt P08684).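 Note: CYP3A4 tested as one member of a cytochrome P450 panel screen.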
The nature of data set [2]: inhibitors of intracellular T. cruzi replication, confirmation, NIH3T3 host cells, beta-gal luminescence (AID 2044).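 Note: intracellular parasites grown in NIH/3T3 mouse fibroblasts as host cells; luminescent beta-galactosidase reporter signal from transgenic T. cruzi replicating inside host cells; inhibitors lower the luminescence signal.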 The data set is classed as functional, cell-based.
Data set [3] is described as follows: cytotoxicity toward NIH3T3 fibroblasts, dose response, counter-screen, cell-based, ATP luminescence, mouse fibroblasts (AID 2010).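 Note: cells exposed to compound for about 90 hours before reading.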 The data set is classed as functional.
Data set [4] in a line: Luminescence Cell-Based Dose Retest to Confirm Inhibitors of Cancer Stem Cells. [Related pubchem assays (depositor defined):AID2717, AID2721]. In kind it is functional. As to conditions: Homo sapiens.
Data set [5] concerns the target T2, Corticotropin-releasing factor receptor 2/Corticotropin-releasing factor-binding protein (Homo sapiens, UniProt P24387+Q13324).
T2 sequence (Q13324 whole entry): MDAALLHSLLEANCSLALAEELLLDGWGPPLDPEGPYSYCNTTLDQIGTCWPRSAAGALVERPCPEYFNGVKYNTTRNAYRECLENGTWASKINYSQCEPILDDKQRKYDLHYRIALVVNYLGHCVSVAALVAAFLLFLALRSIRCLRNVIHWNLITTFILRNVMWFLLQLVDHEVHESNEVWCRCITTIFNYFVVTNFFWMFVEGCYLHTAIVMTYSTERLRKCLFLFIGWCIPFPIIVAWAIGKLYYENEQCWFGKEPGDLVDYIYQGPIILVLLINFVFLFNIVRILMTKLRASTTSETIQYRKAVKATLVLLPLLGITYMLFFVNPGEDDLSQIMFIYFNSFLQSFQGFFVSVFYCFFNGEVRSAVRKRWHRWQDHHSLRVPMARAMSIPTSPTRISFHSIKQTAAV
T2 sequence (P24387 whole entry): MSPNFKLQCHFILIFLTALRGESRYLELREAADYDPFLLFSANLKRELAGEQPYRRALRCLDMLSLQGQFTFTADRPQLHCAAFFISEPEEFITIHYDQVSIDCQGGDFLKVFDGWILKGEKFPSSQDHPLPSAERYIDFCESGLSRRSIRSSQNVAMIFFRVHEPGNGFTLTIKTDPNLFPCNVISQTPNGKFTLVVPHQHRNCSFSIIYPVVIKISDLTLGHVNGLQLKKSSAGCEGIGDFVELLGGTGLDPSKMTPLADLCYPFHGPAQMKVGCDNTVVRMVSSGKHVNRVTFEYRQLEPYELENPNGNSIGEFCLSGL
As to the kind of experiment: activators of CRF receptor 2 with binding protein – uHTS hits, confirmation (AID 602473). As to conditions: read-out: EC50_Mean. In kind it is functional.

SMILES strings stand for the structures. The source made the active and inactive calls.

Sequence of Cytochrome P450 3A4 (P08684 whole entry): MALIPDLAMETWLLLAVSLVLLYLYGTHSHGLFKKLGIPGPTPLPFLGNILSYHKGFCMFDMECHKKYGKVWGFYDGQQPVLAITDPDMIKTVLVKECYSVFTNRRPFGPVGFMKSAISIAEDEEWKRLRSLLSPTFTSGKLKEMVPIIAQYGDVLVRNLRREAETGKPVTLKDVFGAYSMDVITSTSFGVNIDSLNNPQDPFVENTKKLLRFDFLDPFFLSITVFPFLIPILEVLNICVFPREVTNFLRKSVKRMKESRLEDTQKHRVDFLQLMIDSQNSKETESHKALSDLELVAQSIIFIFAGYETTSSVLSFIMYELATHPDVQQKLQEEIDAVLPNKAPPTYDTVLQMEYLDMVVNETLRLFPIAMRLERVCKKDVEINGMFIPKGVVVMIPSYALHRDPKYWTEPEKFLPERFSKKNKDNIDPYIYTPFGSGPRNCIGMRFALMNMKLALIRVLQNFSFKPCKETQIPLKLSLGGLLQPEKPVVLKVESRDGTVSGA
Sequence of Cytochrome P450 2C19 (P33261 whole entry): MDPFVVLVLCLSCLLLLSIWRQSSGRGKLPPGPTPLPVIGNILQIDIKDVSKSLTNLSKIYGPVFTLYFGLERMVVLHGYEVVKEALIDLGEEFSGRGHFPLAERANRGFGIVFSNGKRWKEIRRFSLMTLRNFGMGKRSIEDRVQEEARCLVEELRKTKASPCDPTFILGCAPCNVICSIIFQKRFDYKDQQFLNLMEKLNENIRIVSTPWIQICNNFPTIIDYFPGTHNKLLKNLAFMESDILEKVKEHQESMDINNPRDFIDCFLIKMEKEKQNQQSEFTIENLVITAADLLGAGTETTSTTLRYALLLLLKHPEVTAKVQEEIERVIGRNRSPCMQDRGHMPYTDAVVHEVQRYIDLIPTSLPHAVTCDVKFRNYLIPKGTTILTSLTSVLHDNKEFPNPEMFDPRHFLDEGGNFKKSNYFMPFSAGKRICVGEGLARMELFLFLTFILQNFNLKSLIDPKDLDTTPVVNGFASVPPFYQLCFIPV
Sequence of Cytochrome P450 2C9 (P11712 whole entry): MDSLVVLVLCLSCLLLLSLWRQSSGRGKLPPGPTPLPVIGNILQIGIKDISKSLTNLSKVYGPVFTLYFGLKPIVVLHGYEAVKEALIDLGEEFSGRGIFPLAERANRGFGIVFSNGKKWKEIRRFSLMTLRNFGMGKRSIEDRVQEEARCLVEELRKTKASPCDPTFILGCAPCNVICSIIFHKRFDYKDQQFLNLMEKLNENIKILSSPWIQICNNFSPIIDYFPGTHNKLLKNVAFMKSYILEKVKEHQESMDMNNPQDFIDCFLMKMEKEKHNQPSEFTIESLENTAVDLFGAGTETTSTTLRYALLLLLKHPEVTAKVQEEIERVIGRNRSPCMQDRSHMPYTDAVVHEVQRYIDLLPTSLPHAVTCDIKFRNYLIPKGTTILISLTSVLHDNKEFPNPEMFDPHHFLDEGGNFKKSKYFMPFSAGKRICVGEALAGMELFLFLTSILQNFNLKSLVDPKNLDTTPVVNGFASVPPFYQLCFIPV

`CCC1(C)Cc2ccccc2-c2nc(-c3ccccc3)oc(=O)c21` (configuration not stated): the figures for the EC50 (in data set [1]; at Streptokinase A; with Streptococcus) were 14 µM (active), 13.2 µM (active) and > 150 µM (not active), respectively.

Consider `CCOc1ccc(-c2nnc3ccc(SC(C)C)nn23)cc1`, for which the EC50 in data set [1] is 2.79 µM (active); at Streptokinase A it was > 150 µM (not active); in the data set with Streptococcus it was 22.9 µM (active).

For the compound `O=C(/C=C/c1ccccc1)NCCc1ccccc1`, the EC50 in data set [1] is > 150 µM (not active); on Streptokinase A, 48.7 µM (active); in the data set with Streptococcus it was > 150 µM (not active).

For the compound `COC(=O)c1ccccc1OCC(=O)N1CCN(c2ccc(OC)cc2)CC1`, on Cytochrome P450 2C9, the AC50 is 17.8 µM (inconclusive).

For the compound `O=S1(=O)[C@@H](c2ccccc2)[C@H](N2CCCCC2)[C@H]1[C@H]1C[C@H]2c3ccccc3[C@@H]1c1ccccc12`, the AC50 at Cytochrome P450 2C9 was 7.94 µM (inconclusive).

With `COC(=O)c1ccc(C(=O)OC)c(NC(=O)CN(C)Cc2cccc(Cl)c2Cl)c1`, the values for the EC50 (in data set [1]; at Streptokinase A; in the data set with Streptococcus) were 11.2 µM (active), 13.9 µM (active) and > 150 µM (not active), respectively.

Take `CC(=O)Nc1cccc(C(=O)OCc2ccc(C(=O)Oc3ccc(Cl)cc3)cc2)c1`: the AC50 on Cytochrome P450 2C9 was 1.12 µM (inconclusive).

Regarding `COc1ccc2oc(-c3ccc(C)c(NC(=O)c4ccc(N5CCOCC5)c([N+](=O)[O-])c4)c3)nc2c1`, the concentration at half-maximal activity (AC50) on Cytochrome P450 2C9 is 3.16 µM (inconclusive); at Cytochrome P450 2C19 (read-out: AC50) it was 5.62 µM (inconclusive).

Take `O=C(O)c1ccccc1C(=O)NCc1ccc(F)cc1`: the AC50 at Cytochrome P450 2C19 (read-out: AC50) was 28.2 µM (inconclusive).

Turning to `Cc1nn(CC(=O)Nc2c(F)c(F)cc(F)c2F)c(=O)c2cccn12`, the EC50 (in data set [1]; at Streptokinase A; in the data set on Streptococcus) was > 150 µM (not active) in each case.

For the compound `Cc1ccsc1C1C=C(c2cccc(Br)c2)Nc2ncnn21` (configuration not stated), the EC50 in data set [1] was 7.49 µM (active); at Streptokinase A it was > 150 µM (not active); with Streptococcus, > 150 µM (not active).

As to `C[C@H]1C2=C3C(CC[C@H]4C(OCc5ccc(F)cc5C(F)(F)F)OC[C@](C)([C@@H]34)N(C(=O)OC(C)(C)C)C2)C(CO)C1CO` (some centres not stated), the concentration at half-maximal activity (AC50) on Cytochrome P450 2C9 and on Cytochrome P450 2C19 (read-out: AC50) was 39.8 µM (inconclusive) throughout.

Take `CCOC(=O)c1c(C)n(C)c2ccc(OC(=O)c3ccco3)cc12`: the AC50 at Cytochrome P450 2C9 was 1.12 µM (inconclusive).

As to `COc1ccc(C)cc1NC(=O)CNC(c1ccccc1)c1ccccc1`, the EC50 in [1] was 28.9 µM (active); at Streptokinase A, > 150 µM (not active); with Streptococcus it was 96.1 µM (active).

On to `O=c1cnc2cncnc2n1Cc1ccc(F)cc1`, for which the results for the concentration at half-maximal activity (AC50) on Cytochrome P450 2C19 (read-out: AC50) and on Cytochrome P450 3A4 were 39.8 µM (inconclusive) and 20 µM (inconclusive), respectively.

As to `O=C(/C=C/c1ccccc1)NC(NC(=S)Nc1cccc(Cl)c1)C(Cl)(Cl)Cl` (configuration not stated), the EC50 in data set [1] is 3.62 µM (active); at Streptokinase A, > 150 µM (not active); in [2], 1.68 µM (active); in data set [3] it was > 60 µM (inconclusive); with Streptococcus, 6.3 µM (active).

Turning to `CC(C)(C)C(=O)Nc1cccc(-c2nc3ccccc3c(=O)o2)c1`, the figures for the AC50 on Cytochrome P450 2C19 (read-out: AC50) and at Cytochrome P450 3A4 were 35.5 µM (inconclusive) and 25.1 µM (inconclusive), respectively.

On to `O=C(CN1CCCC1)Nc1ccc(NC(=O)Nc2ccccc2)cc1`, for which the EC50 (in data set [1]; on Streptokinase A; in the data set with Streptococcus) was > 150 µM (not active) throughout.

`CS(=O)(=O)Nc1cccc(-c2ccc3ncnc(NC4CC4)c3c2)c1`: the AC50 result on Cytochrome P450 2C19 was “inconclusive”.

As for `O=C(CN1c2ccccc2Sc2ccccc21)NNC(=O)Nc1ccc(Cl)c(Cl)c1`, the AC50 in data set [4] is 3.05 µM (active). Further, the EC50 in data set [1] was 2.45 µM (active); on Streptokinase A, > 150 µM (not active); in the data set on Streptococcus, 5.49 µM (active).

Regarding `CC(C)Oc1ccc(C(=O)Nc2nnc(C3=COCCO3)o2)cc1`, the EC50 in data set [1] is 0.766 µM (active); at Streptokinase A, > 150 µM (not active); in the data set with Streptococcus, 14.8 µM (active).

With `O=C(COc1ccc([N+](=O)[O-])cc1)NCc1ccccc1`, the AC50 on Cytochrome P450 2C9 is 17.8 µM (inconclusive); on Cytochrome P450 2C19 (read-out: AC50) it was 7.94 µM (inconclusive).

On to `O=c1c(-c2ccc(F)c(F)c2)nc2cncnc2n1-c1ccccc1`, for which the AC50 on Cytochrome P450 2C9 is 15.8 µM (inconclusive); on Cytochrome P450 3A4, 20 µM (inconclusive).

With `CCN1CN=C(S)N(c2cc(C)ccc2C)C1`, the AC50 at Cytochrome P450 2C19 (read-out: AC50) was 39.8 µM (inconclusive); on Cytochrome P450 3A4, 20 µM (inconclusive).

Regarding `COC(=O)c1[nH]c(C)c(C(=O)C2=C(O)C(=O)N(CCN(C)C)C2c2cccs2)c1C` (configuration not stated), the AC50 at Cytochrome P450 2C19 (read-out: AC50) is 14.1 µM (inconclusive).

As to `Cc1nnc(SCC2=C(C(=O)O)N3C(=O)C(NC(=O)c4cc(F)c(F)cc4Cl)C3SC2)s1` (configuration not stated), the EC50 in data set [1] was 0.515 µM (active); on Streptokinase A, > 150 µM (not active); with Streptococcus it was 0.815 µM (active).

Regarding `COc1ccc(CN2CCc3ccc(NC(=O)c4ccncc4)cc3C2)c(F)c1`, the EC50 (in [1]; on Streptokinase A; with Streptococcus) was > 150 µM (not active) each time.

With `O=C(Nc1cccnc1)c1ccc2snnc2c1`, the results for the AC50 at Cytochrome P450 2C9 and at Cytochrome P450 2C19 (read-out: AC50) were 25.1 µM (inconclusive) and 17.8 µM (inconclusive), respectively.

Turning to `CC(C)NC[C@@H](O)c1ccc(O)c2ncccc12`, the AC50 entry at Cytochrome P450 2C19 is listed as “inconclusive”.

As for `Cc1cc(C)c2c(C(C)(C)C)nn(-c3ccccc3)c2n1`, the EC50 is 15.1 µM (active) in data set [1], 30.2 µM (active) on Streptokinase A and 15.7 µM (active) with Streptococcus.

As to `Cc1cc(S(=O)(=O)c2cc3ccc(O)c(C)c3oc2=O)ccc1F`, the EC50 in data set [5] is 5.8 µM (active).

`Cn1c(SCC(=O)NC2CC2)nnc1-c1cccc(NC(=O)c2ccccc2F)c1`: the AC50 on Cytochrome P450 2C9 is 17.8 µM (inconclusive).

`CCC(C(=O)Nc1ccc(C(C)C)cc1)c1ccccc1` (configuration not stated): in data set [5], the EC50 was 6.87 µM (active).

Regarding `O=C1C[C@H](c2ccccc2)[C@@H](c2ccc(Br)cc2)O1`, the AC50 on Cytochrome P450 2C9 is 3.16 µM (inconclusive).

For the compound `COCCn1c(=O)c(-c2ccc(F)cc2)nc2cnc(Oc3ccccc3)nc21`, the AC50 was 10 µM (inconclusive) on Cytochrome P450 2C9 and 15.8 µM (inconclusive) on Cytochrome P450 3A4.

Take `Cc1cc(=O)oc2c3c(cc(OCC(=O)NC4CC4)c12)OC(C)(C)CC3`: the EC50 (in [1]; at Streptokinase A; in the data set on Streptococcus) was > 150 µM (not active) throughout.

For the compound `CC(C)(C)C1CCc2c(C(=O)N/N=C/c3cccs3)csc2C1` (configuration not stated), the AC50 on Cytochrome P450 2C9 was 7.94 µM (inconclusive).

Consider `C=CCNC(=O)CC(=O)N/N=C/c1cccc(Br)c1`, for which the AC50 on Cytochrome P450 2C19 (read-out: AC50) is 0.2 µM (inconclusive).

As for `O=C(O)C1CCCN1C(=O)OCc1ccccc1` (configuration not stated), the AC50 at Cytochrome P450 2C19 (read-out: AC50) is 15.8 µM (inconclusive).

For `CS(=O)(=O)Nc1ccc(Cc2noc(-c3ccc4[nH]cc(CCN)c4c3)n2)cc1` [L-694247], at Cytochrome P450 2C9, the AC50 is 31.6 µM (inconclusive).

As usually defined, the AC50 is the concentration giving half of the maximal activity seen.
